Measured values taken from patent publication US20100004248A1, “Use of a Nitric Oxide Synthase Modulator for the Treatment of Cardiac Indications” (priority 2005, published 2010).

Assays:
[1] = test system: Adult myocytes isolated from wild-type C57/B16 mouse hearts; assay: Sarcomere shortening of isolated adult myocytes exposed to isoproterenol; format: cell-based
[2] = test system: intact heart, beta-adrenergic stimulation by ISO; assay: Contractility response of intact heart to isoproterenol (ISO); format: in vivo, mouse
Source text: Regulation of acute beta-adrenergic stress by PDE5a inhibition (resulting in a rise in cGMP and activation of protein kinase G) requires the activity of nitric oxide synthase (NOS). […] This can be offset by chronic distal activation of the NO target protein soluble guanylate cyclase 9sGC). At the left are bars depicting the contractility response of an intact heart to ISO before and after co-administration of SIL. The ISO response is normally blunted by nearly 80%. The middle bars show data from mice with NOS inhibited by L-NAME (1 mg/L in drinking water). […] However, if one continues to treat hearts with the soluble guanylate cyclase activator (BAY 41-8543) for a week-all the while continuing NOS inhibition with L-NAME, the ability of SIL to suppress adrenergic stimulation is restored.

[3] = test system: Protein kinase G; assay: Protein kinase G activity in 9-week TAC hearts; format: in vivo, mouse; settings: treatment during weeks 5-9
Source text: Protein kinase G activity increased nominally over time in 9-week TAC hearts, although this falls just short of statistical significance. […] Rather, the prior data supports an effect on reducing oxidant stress and re-coupling nitric oxide synthase.

CCCc1nn(C)c2c(=O)[nH]c(-c3cc(S(=O)(=O)N4CCN(C)CC4)ccc3OCC)nc12 [Sildenafil, sildenafil]
ability to blunt the isoproterenol response ([1]; myocytes from hypertrophied and dilated hearts (3-4 weeks TAC), p=0.04): markedly diminished | blunting of isoproterenol-increased sarcomere shortening ([1]; wild-type myocytes, isoproterenol 10 micromolar, sildenafil 0.1): ~25% | blunting of ISO contractility response ([2]; intact heart, co-administration of SIL): ~80% | inhibition of ISO response with NOS inhibited ([2]; mice given L-NAME 1 mg/L in drinking water for 1 week): no longer inhibited | PKG activity [3]: significantly increased
